ChEMBL document CHEMBL6078700, “Synthesis of novel deuterated EGFR/ALK dual-target inhibitors and their activity against non-small cell lung cancer” (Eur J Med Chem, 2025)
Calls of active or inactive are those of the source.

Legend:
NCI-H1975 [1] = test: Downregulation of ERAP2 expression in human NCI-H1975 cells; format: functional, cell-based; details: tested as the 2H-labelled form
NCI-H1975 [2] = test: Downregulation of Tomm40 expression in human NCI-H1975 cells; format: functional, cell-based; details: tested as the 2H-labelled form
NCI-H1975 [3] = test: Downregulation of LANCL1 expression in human NCI-H1975 cells; format: functional, cell-based; details: tested as the 2H-labelled form
[4] = target: ALK tyrosine kinase receptor (Homo sapiens) (UniProt Q9UM73); test: Inhibition of ALK phosphorylation in human NCI-H2228 cells upto 10 nM incubated for 2 to 4 hrs by Western blot analysis; format: cell-based; details: time 2-4 hrs, tested as the 2H-labelled form
[5] = target: ALK tyrosine kinase receptor (Homo sapiens) (UniProt Q9UM73); test: Inhibition of ALK in human NCI-H2228 cells assessed as decrease in pAKT level upto 10 nM incubated for 2 to 4 hrs by Western blot analysis; format: cell-based; details: time 2-4 hrs, tested as the 2H-labelled form
[6] = target: ALK tyrosine kinase receptor (Homo sapiens) (UniProt Q9UM73); test: Inhibition of ALK in human NCI-H2228 cells assessed as decrease in pERK level upto 10 nM incubated for 2 to 4 hrs by Western blot analysis; format: cell-based; details: time 2-4 hrs, tested as the 2H-labelled form
[7] = target: ALK tyrosine kinase receptor (Homo sapiens) (UniProt Q9UM73); test: Inhibition of ALK phosphorylation in human NCI-H2228 cells at 25 to 50 nM incubated for 12 hrs by immunofluorescence based analysis; format: cell-based; details: dose 25-50 nM, tested as the 2H-labelled form
NCI-H1975 [8] = test: Induction of cell cycle arrest in human NCI-H1975 cells assessed as decrease in cyclin D1 level upto 10 nM incubated for 2 to 4 hrs by Western blot analysis; format: functional, cell-based; details: time 2-4 hrs, tested as the 2H-labelled form
NCI-H1975 [9] = test: Induction of DNA damage in human NCI-H1975 cells at 1 nM incubated for 24 hrs by immunofluorescence based analysis; format: functional, cell-based; details: tested as the 2H-labelled form
NCI-H1975 [10] = test: Induction of DNA damage in human NCI-H1975 cells assessed as increase in pH2AX level upto 10 nM incubated for 2 to 4 hrs by Western blot analysis; format: functional, cell-based; details: time 2-4 hrs, tested as the 2H-labelled form
NCI-H1975 [11] = test: Induction of apoptosis in human NCI-H1975 cells assessed as decrease in BCL-2 level upto 10 nM incubated for 2 to 4 hrs by Western blot analysis; format: functional, cell-based; details: time 2-4 hrs, tested as the 2H-labelled form
NCI-H1975 [12] = test: Induction of apoptosis in human NCI-H1975 cells assessed as decrease in BCL-XL level upto 10 nM incubated for 2 to 4 hrs by Western blot analysis; format: functional, cell-based; details: time 2-4 hrs, tested as the 2H-labelled form
NCI-H1975 [13] = test: Induction of apoptosis in human NCI-H1975 cells assessed as increase in cleaved caspase-3 level upto 10 nM incubated for 2 to 4 hrs by Western blot analysis; format: functional, cell-based; details: time 2-4 hrs, tested as the 2H-labelled form
NCI-H1975 [14] = test: Induction of mitochondrial membrane potential in human NCI-H1975 cells assessed as reduction in red fluorescence at 5 nM by JC-1 dye based analysis; format: functional, cell-based; details: tested as the 2H-labelled form
NCI-H1975 [15] = test: Induction of mitochondrial membrane potential in human NCI-H1975 cells assessed as increase in green fluorescence at 5 nM by JC-1 dye based analysis; format: functional, cell-based; details: tested as the 2H-labelled form
NCI-H1975 [16] = test: Anti-migration activity in human NCI-H1975 cells incubated for 24 hrs by scratch-wound assay; format: functional, cell-based; details: dose 5.0 nM, tested as the 2H-labelled form
NCI-H1975 [17] = test: Anti-invasive activity in human NCI-H1975 cells incubated for 48 hrs by transwell assay; format: functional, cell-based; details: dose 1-10 nM, tested as the 2H-labelled form
NCI-H1975 [18] = test: Anti-migration activity in human NCI-H1975 cells assessed as increase in E-cadherin level upto 10 nM incubated for 2 to 4 hrs by Western blot analysis; format: functional, cell-based; details: time 2-4 hrs, tested as the 2H-labelled form
NCI-H1975 [19] = test: Anti-migration activity in human NCI-H1975 cells assessed as decrease in N-cadherin level upto 10 nM incubated for 2 to 4 hrs by Western blot analysis; format: functional, cell-based; details: time 2-4 hrs, tested as the 2H-labelled form
NCI-H1975 [20] = test: Inhibition of colony formation in human NCI-H1975 cells assessed as reduction in tumor cell number incubated for 24 hrs followed by medium replacement daily without compound measured after 14 days by crystal violet staining based analysis; format: functional; details: dose 1-10 nM, tested as the 2H-labelled form
NCI-H1975 [21] = test: Inhibition of colony formation in human NCI-H1975 cells assessed as reduction in tumor cell size incubated for 24 hrs followed by medium replacement daily without compound measured after 14 days by crystal violet staining based analysis; format: functional; details: dose 1-10 nM, tested as the 2H-labelled form
Mus musculus = test: In vivo inhibition of EGFR phosphorylation in human NCI-H1975 cells xenografted in BALB/c-nu mouse at 15 to 30 mg/kg, po administered daily orally for 21 days by IHC analysis; format: functional, organism-based; details: dose 15-30 mg/kg, time 21.0 day, tested as the 2H-labelled form

ALK tyrosine kinase receptor (Homo sapiens), sequence (Q9UM73 19-1620 limits assumed): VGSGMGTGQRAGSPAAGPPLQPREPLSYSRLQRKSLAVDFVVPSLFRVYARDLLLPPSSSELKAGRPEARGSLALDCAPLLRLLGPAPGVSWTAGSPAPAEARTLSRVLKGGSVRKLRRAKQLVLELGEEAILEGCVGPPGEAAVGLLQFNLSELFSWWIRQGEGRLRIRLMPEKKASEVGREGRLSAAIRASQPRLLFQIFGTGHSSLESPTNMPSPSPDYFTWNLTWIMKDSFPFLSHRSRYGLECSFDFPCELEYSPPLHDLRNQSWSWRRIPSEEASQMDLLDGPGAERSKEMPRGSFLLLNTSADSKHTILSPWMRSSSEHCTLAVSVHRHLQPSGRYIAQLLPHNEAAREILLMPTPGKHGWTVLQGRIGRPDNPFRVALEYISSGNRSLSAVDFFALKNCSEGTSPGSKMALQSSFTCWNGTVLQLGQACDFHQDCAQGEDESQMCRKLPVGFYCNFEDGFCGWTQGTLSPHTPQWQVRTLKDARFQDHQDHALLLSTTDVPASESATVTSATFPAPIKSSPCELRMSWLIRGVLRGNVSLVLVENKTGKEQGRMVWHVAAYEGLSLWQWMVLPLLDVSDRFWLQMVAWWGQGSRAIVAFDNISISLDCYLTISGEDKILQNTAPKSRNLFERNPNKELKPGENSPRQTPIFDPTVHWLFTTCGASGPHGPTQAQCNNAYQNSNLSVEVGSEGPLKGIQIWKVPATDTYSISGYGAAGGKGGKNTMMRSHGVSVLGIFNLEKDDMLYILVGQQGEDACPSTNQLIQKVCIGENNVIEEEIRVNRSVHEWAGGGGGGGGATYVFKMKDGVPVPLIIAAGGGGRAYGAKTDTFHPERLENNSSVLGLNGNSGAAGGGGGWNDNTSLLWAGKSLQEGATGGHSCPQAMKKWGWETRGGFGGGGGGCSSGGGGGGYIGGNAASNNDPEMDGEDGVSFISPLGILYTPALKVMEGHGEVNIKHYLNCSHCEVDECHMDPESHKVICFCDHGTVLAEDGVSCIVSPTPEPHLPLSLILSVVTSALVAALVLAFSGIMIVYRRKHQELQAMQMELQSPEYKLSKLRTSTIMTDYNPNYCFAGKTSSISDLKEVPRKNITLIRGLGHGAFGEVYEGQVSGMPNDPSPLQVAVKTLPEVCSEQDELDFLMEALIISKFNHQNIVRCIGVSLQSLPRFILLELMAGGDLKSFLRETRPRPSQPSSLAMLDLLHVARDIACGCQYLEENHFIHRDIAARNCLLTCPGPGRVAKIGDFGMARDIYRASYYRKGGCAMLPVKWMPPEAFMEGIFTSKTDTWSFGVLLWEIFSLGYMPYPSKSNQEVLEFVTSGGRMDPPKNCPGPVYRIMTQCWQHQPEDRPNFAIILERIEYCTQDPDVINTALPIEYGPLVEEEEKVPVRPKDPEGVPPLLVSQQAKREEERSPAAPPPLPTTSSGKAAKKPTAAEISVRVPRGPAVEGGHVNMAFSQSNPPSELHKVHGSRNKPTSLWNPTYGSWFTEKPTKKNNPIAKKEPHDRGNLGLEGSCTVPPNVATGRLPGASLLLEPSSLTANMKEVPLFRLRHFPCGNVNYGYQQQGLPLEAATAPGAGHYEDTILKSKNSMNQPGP

C=CC(=O)Nc1cc(Nc2ncc(Cl)c(Nc3ccccc3[S+]([O-])CC)n2)c(OC)cc1N(C)CCN(C)C (single isomer, unassigned; (-))
active: Activity (NCI-H1975 [1]) | Activity (NCI-H1975 [2]) | Activity (NCI-H1975 [3]) | inhibition [4] | inhibition [5] | inhibition [6] | inhibition [7] | Activity (NCI-H1975 [8]) | Activity (NCI-H1975 [9]) | Activity (NCI-H1975 [10]) | Activity (NCI-H1975 [11]) | Activity (NCI-H1975 [12]) | Activity (NCI-H1975 [13]) | Activity (NCI-H1975 [14]) | Activity (NCI-H1975 [15]) | Activity (NCI-H1975 [16]) Dose-dependent-effect | Activity (NCI-H1975 [17]) Dose-dependent-effect | Activity (NCI-H1975 [18]) | Activity (NCI-H1975 [19]) | inhibition (NCI-H1975 [20]) Dose-dependent-effect | inhibition (NCI-H1975 [21]) Dose-dependent-effect | inhibition (Mus musculus) Active; Inhibitory Effect Was Observed Superior To That Of Osimertinib
